Patent US9150899B2, “Identification of compounds modifying a cellular response” (2cureX, priority 2004, dated 2015)
Non-standard residues stand in square brackets, D forms with d. No end group written: not given here.

Test system: GFP expressing U2OS cells and GFP expressing Hek293 cells
Assay: Screening of adhesion D-amino peptide library for low fluorescence/high adherence properties
Type: cell-based, Human
Settings: re-synthesized adhesion peptides on PEGA beads; six re-synthesized plus four additional peptides compared
Experimental: Approx. 100 adhesion peptide library beads were mixed with 1×10E6 cells (BHK, CHO, U2OS, Hek) in each well of a Falcon 12 well plate using 2 ml growth medium. The adhesion peptide library was prepared according to the general methods for solid phase peptide synthesis outlined above. The library consisted of heptamers of D-amino acids. The peptide library beads were PEGA beads each coupled to a potential adhesion peptide. The cells and beads were mixed gently every 15 min for 2 hrs. Supernatant with non-attached cells were removed and new growth medium added. Cells/beads were incubating for another 16 hrs. (37° C., 5% CO2). Cell adhesive beads were identified using a microscope with 10× objective and positive beads were transferred to a filter paper (to suck off medium). Peptides were identified by amino acid sequencing.
An adhesion D-amino peptide library was synthesized (500.000 members) as described above in Example 2a and screened for low fluorescence/high adherence properties. This was done in 4 steps: • 1) Selection of low fluorescent beads by Fluorescence Activated Bead Sorting (FABS). […]
The 150.000 low fluorescent beads were incubated with GFP expressing U2OS cells followed by FABS sorting for high fluorescence (high cell adhesion). […] 47 beads with high cell adhesion properties were isolated using a fluorescence microscope. • 4) Sequence elucidation and re-synthesis of selected peptides. […]

## SEQ ID 35: adhesion peptide arg gln arg ile arg (D-amino acids) ([dR][dQ][dR][dI][dR])
  overall performance (low fluorescence/high adherence properties): best overall performance
